This passage reports IC50 and melting point results from PMC6274259, “New 3-Cyano-2-Substituted Pyridines Induce Apoptosis in MCF 7 Breast Cancer Cells” (Molecules, 2016).

Series [1] concerns SK-OV-3 human ovarian carcinoma cell line. The experiment in a line: WST-1 cell viability assay, SK-OV-3. It is filed as cell-based. The following applies: WST-1, 24 h treatment, mean ± S.D of three independent experiments. From the text: (§1) The synthesized compounds were screened for their cytotoxicity on five cancer cell lines, namely SK-OV-3, MCF-7, MDA-MB-231, HCT-116 and RKO, using a WST colorimetric assay. The assay principle is based upon the reduction of the tetrazolium salt WST-1 to formazan by cellular mitochondrial dehydrogenases present in viable cells. […] Among the latter compounds the benzohydrazide derivative 9a emerged with the lowest IC50 in this study against MCF-7 cells compared to 5-FU. […] Based on the fact that 9a had less cytotoxic effects on normal breast epithelial cells it was subjected to further studies.
(§2) The following cell lines were used for the screening stage, obtained from the American Type Culture Collection (ATCC, Manassas, VA, USA); SK-OV-3 (HTB-77), MCF-12A (ATCC CRL-10782), MDA-MB-231 (ATCC HTB-26), HCT-116 (CCL-247), RKO (CRL-2577) and sub-culturing of the above cell lines was conducted in 75 cm^2 flasks. The old culture media was removed and discarded after assessing the confluency of the cells and the cells were rinsed with 2–3 mL diluted trypsin (1×) (trypsin/EDTA solution consists of 0.025% trypsin and 0.01% EDTA in PBS), for about 5 minutes for complete detachment. The cells were observed under the inverted microscope until the cell layer is completely dispersed. 75 cm^2 flasks were prepared and 16 mL of DMEM media for SK-OV-3, MCF-7, MDA-MB-231, (DMEM 4500 mg glucose) and RPMI media for HCT-116 were added to each flask. The cells were aspirated gently and added to the flasks. DMEM 4500 mg/L high glucose with 10% FBS, 5% streptomycin and penicillin, RPMI 1640 (prepared by adding 5% heat-inactivated FCS and 2 mm glutamine) were used. DMEM was also used for MCF-12A cells with the addition of human epidermal growth factor 20 ng/mL, insulin 0.01 mg/mL and hydrocortisone 500 ng/mL.
(§3) The synthesized compounds were screened for their anti-proliferative activity using 5-FU (F6627-1G, Sigma-Aldrich, St. Louis, MO, USA) as reference compound. A concentration of 0.4% DMSO was used in all experiment after ensuring 100% viability of the cell lines with this concentration. A 25 mM stock concentration of all compounds was prepared for further studies and analysis.
(§4) Cells were trypsinized and placed in a 15 mL Falcon tube, the cells were centrifuged for 3 min at 1000 rpm. Trypsin is decanted using a sterile pipette and then the pellet is loosened by flicking the tube few times then 5–10 mL warm DMEM or RPMI were added to the Falcon tube and the pellet is resuspended. Cell count was done next by taking 10 μL of the suspension into the cell counting slide and read under 10× cells/mL. A cell stock of 50,000 cells/mL was prepared for the 96 wells. Cells (100 μL) were added to each well using a sterile pipette each time to ensure consistency. The experiment was planned ahead of time using excel sheet, 3–6 wells were reserved as blank media while 3–6 wells for vehicle (DMSO). The plate was incubated for 24 h for compound treatment step. DMEM media was used to prepare different dilutions of the compounds. The old DMEM media was removed from the wells using sterile pipette in the hood and the media was replaced with 100 μL media with each compound. The plate was incubated for 24 h. After 24 h incubation, WST-1 reagent (Sigma) was added to each well and then the plate was incubated for 1 h before measuring the absorbance using VICTOR™ Multilabel Plate Reader (Perkin Elmer, Beaconsfield, UK). The absorbance of the colored solution can be quantified by measuring at a certain wavelength (usually between 500–600 nm), in this experiment the first reading was conducted at 540 nm and the second reading at 690 nm for the reference wavelength. The percentage of cell viability was determined as the ratio of the absorbance of the sample vs the control. Three independent experiments were performed. […] 5-Florouracil (Sigma-Aldrich, F6627-1G) was used as reference standard.

Series [2] has as its system MCF-7 human breast adenocarcinoma cell line. The series can be described thus: WST-1 cell viability assay, MCF-7. It is filed as cell-based. The following applies: WST-1, 24 h treatment, mean ± S.D of three independent experiments.
Excerpt: as §1, §2, §3, §4

Series [3] deals with MDA-MB-231 human breast adenocarcinoma cell line. The series can be described thus: WST-1 cell viability assay, MDA-MB-231. It is filed as cell-based. The following applies: WST-1, 24 h treatment, mean ± S.D of three independent experiments.
Excerpt: as §1, §2, §3, §4

Series [4] deals with HCT-116 human colon carcinoma cell line. The series can be described thus: WST-1 cell viability assay, HCT-116. It is filed as cell-based. The note with it: WST-1, 24 h treatment, mean ± S.D of three independent experiments.
Excerpt: as §1, §2, §3, §4

For series [5], the system named is RKO human colon carcinoma cell line. The series can be described thus: WST-1 cell viability assay, RKO. It is filed as cell-based. The following applies: WST-1, 24 h treatment, mean ± S.D of three independent experiments.
Excerpt: as §1, §2, §3, §4

The mark [6] stands for this setting: Homo sapiens, Colon carcinoma cell.

Each structure is given as a SMILES string.

Turning to `CCOc1nc(-c2ccc(OC)c(OC)c2)cc(-c2ccc(OC)c(OC)c2)c1C#N` [Compound 4b, 2-Ethoxy-4,6-bis(3,4-dimethoxyphenyl)pyridine-3-carbonitrile], the IC50 in series [1] (Homo sapiens, SK-OV-3) was 18.2 ± 0.98 µM; in series [2] (Homo sapiens, MCF7, 24 h), 15.5 ± 0.46 µM; in series [3] (Homo sapiens, MDA-MB-231), 40 ± 1.36 µM; in series [4] (Homo sapiens, HCT-116) it was 26.2 ± 1.22 µM; in series [5] (setting [6]) it was 19.8 ± 0.37 µM.
For `COc1ccc(-c2cc(-c3ccc(OC)c(OC)c3)c(C#N)c(OCC(=O)NNC(=S)SC)n2)cc1OC` [Compound 7a, Methyl 2-[2-(3-cyano-4,6-bis(3,4-dimethoxyphenyl)pyridin-2-yloxy)acetyl]hydrazinecarbodithioate], the melting point lay within 151 to 153 °C. This compound also showed an IC50 in series [1] (Homo sapiens, SK-OV-3) of 9.01 ± 0.42 µM. In series [2] (Homo sapiens, MCF7, 24 h), this compound displayed an IC50 of 11.2 ± 0.22 µM. For the same compound, in series [3] (Homo sapiens, MDA-MB-231), the IC50 was found to be 30.1 ± 0.88 µM. This compound also yielded a concentration for half-maximal inhibition (IC50) in series [4] (Homo sapiens, HCT-116) of 23.2 ± 0.95 µM. Moreover, inhibition in series [5] (setting [6]) was half-maximal at 11.2 ± 0.91 µM (IC50).
Turning to `O=c1[nH]cc(F)c(=O)[nH]1` [Compound 5-FU, 5-Florouracil, reference compound], the concentration for half-maximal inhibition (IC50) was found to be 32.2 ± 1.03 µM in series [1]; 7.06 ± 0.91 µM in series [2]; 15.1 ± 0.94 µM in series [3]; 12.2 ± 1.1 µM in series [4]; 20.2 ± 1.16 µM in series [5].
With `CCSC(=S)NNC(=O)COc1nc(-c2ccc(OC)c(OC)c2)cc(-c2ccc(OC)c(OC)c2)c1C#N` [Compound 7b, Ethyl 2-[2-(3-cyano-4,6-bis(3,4-dimethoxyphenyl)pyridin-2-yloxy)acetyl]hydrazinecarbodithioate], the melting point was in the range of 144 to 146 °C. This compound gave an IC50 in series [1] (Homo sapiens, SK-OV-3) of 12.3 ± 0.88 µM. For the same compound, the IC50 in series [2] (Homo sapiens, MCF7, 24 h) turned out to be 18.1 ± 1.76 µM. Besides, 37.9 ± 1.25 µM corresponded to half-maximal inhibition in series [3] (Homo sapiens, MDA-MB-231) (IC50). This compound registered an IC50 in series [4] (Homo sapiens, HCT-116) of 9.1 ± 0.97 µM. This compound returned an IC50 in series [5] (setting [6]) of 15.2 ± 1.13 µM.
Consider `COc1ccc(C=NNC(=O)COc2nc(-c3ccc(OC)c(OC)c3)cc(-c3ccc(OC)c(OC)c3)c2C#N)cc1` [Compound 8a, 2-[3-Cyano-4,6-bis(3,4-dimethoxyphenyl)pyridin-2-yl]oxy-N'-(4-methoxybenzylidene)acetohydrazide], for which the melting point fell in the range of 163 to 164 °C. Moreover, the IC50 in series [1] (Homo sapiens, SK-OV-3) was 14.1 ± 0.95 µM. In addition, inhibition in series [2] (Homo sapiens, MCF7, 24 h) was half-maximal at 12 ± 0.96 µM (IC50). The same compound yielded an IC50 in series [3] (Homo sapiens, MDA-MB-231) of 25.3 ± 1.24 µM. The same compound returned a concentration for half-maximal inhibition (IC50) in series [4] (Homo sapiens, HCT-116) of 28.8 ± 0.31 µM. Besides, the IC50 in series [5] (setting [6]) came out at 12.32 ± 0.02 µM.
Turning to `COc1ccc(-c2cc(-c3ccc(OC)c(OC)c3)c(C#N)c(OC)n2)cc1OC` [Compound 4a, 2-Methoxy-4,6-bis(3,4-dimethoxyphenyl)pyridine-3-carbonitrile], the IC50 worked out at 11.4 ± 0.72 µM in series [1] (Homo sapiens, SK-OV-3); 9.08 ± 0.37 µM in series [2] (Homo sapiens, MCF7, 24 h); 32.1 ± 0.84 µM in series [3] (Homo sapiens, MDA-MB-231); 20.3 ± 0.85 µM in series [4] (Homo sapiens, HCT-116); 13.2 ± 0.77 µM in series [5] (setting [6]).
For `CCOC(=O)COc1nc(-c2ccc(OC)c(OC)c2)cc(-c2ccc(OC)c(OC)c2)c1C#N` [Compound 5, Ethyl 2-(3-Cyano-4,6-bis(3,4-dimethoxyphenyl)pyridin-2-yloxy)acetate], the IC50 was 10.2 ± 0.44 µM in series [1] (Homo sapiens, SK-OV-3); 15.4 ± 0.94 µM in series [2] (Homo sapiens, MCF7, 24 h); 25.1 ± 0.87 µM in series [3] (Homo sapiens, MDA-MB-231); 14.9 ± 0.98 µM in series [4] (Homo sapiens, HCT-116); 22.1 ± 0.97 µM in series [5] (setting [6]).
For the compound `COc1ccc(-c2cc(-c3ccc(OC)c(OC)c3)c(C#N)c(OCc3nnc(S)o3)n2)cc1OC` [Compound 14, 2-((5-Mercapto-1,3,4-oxadiazol-2-yl)methoxy)-4,6-bis(3,4-dimethoxyphenyl)pyridine-3-carbonitrile], the IC50 in series [1] (Homo sapiens, SK-OV-3) is 30.3 ± 1.12 µM; in series [2] (Homo sapiens, MCF7, 24 h), above 50 µM; in series [3] (Homo sapiens, MDA-MB-231), above 50 µM; in series [4] (Homo sapiens, HCT-116), above 50 µM; in series [5] (setting [6]) it was above 50 µM.
On to `CCCOc1nc(-c2ccc(OC)c(OC)c2)cc(-c2ccc(OC)c(OC)c2)c1C#N` [Compound 4c, 4,6-bis(3,4-Dimethoxyphenyl)-2-propoxypyridine-3-carbonitrile], for which the IC50 in series [1] (Homo sapiens, SK-OV-3) came to 22.1 ± 1.32 µM; in series [2] (Homo sapiens, MCF7, 24 h) it was 12.3 ± 0.77 µM; in series [3] (Homo sapiens, MDA-MB-231), 44.9 ± 1.74 µM; in series [4] (Homo sapiens, HCT-116), 10.1 ± 0.76 µM; in series [5] (setting [6]) it was 18.1 ± 1.03 µM.
